Columns and labels:
[1] = molecular target: T1, cytoplasmic dynein motor domain (380 kDa) (Dictyostelium discoideum, UniProt P34036); experiment: cryo-EM reconstruction of head, […] Å; format: binding; details: 1 mM ADP, 4 mM MgSO4, pH 7.0; ligand itself not resolved
T1 construct: gene dhcA; tail-less motor domain V1388-I4730, N-terminal His6 and FLAG tags, 380 kDa

[2] = molecular target: T2, cytoplasmic dynein motor domain (380 kDa) (Dictyostelium discoideum, UniProt P34036, E2027Q); experiment: cryo-EM reconstruction of head, […] Å; format: binding; details: 1 mM ATP, 4 mM MgSO4, pH 7.0; AAA1 Walker B mutant that binds but does not hydrolyse ATP; ligand itself not resolved
T2 construct: gene dhcA; tail-less motor domain V1388-I4730, N-terminal His6 and FLAG tags, 380 kDa
T2 sequence (P34036 1388-4730 E2027Q): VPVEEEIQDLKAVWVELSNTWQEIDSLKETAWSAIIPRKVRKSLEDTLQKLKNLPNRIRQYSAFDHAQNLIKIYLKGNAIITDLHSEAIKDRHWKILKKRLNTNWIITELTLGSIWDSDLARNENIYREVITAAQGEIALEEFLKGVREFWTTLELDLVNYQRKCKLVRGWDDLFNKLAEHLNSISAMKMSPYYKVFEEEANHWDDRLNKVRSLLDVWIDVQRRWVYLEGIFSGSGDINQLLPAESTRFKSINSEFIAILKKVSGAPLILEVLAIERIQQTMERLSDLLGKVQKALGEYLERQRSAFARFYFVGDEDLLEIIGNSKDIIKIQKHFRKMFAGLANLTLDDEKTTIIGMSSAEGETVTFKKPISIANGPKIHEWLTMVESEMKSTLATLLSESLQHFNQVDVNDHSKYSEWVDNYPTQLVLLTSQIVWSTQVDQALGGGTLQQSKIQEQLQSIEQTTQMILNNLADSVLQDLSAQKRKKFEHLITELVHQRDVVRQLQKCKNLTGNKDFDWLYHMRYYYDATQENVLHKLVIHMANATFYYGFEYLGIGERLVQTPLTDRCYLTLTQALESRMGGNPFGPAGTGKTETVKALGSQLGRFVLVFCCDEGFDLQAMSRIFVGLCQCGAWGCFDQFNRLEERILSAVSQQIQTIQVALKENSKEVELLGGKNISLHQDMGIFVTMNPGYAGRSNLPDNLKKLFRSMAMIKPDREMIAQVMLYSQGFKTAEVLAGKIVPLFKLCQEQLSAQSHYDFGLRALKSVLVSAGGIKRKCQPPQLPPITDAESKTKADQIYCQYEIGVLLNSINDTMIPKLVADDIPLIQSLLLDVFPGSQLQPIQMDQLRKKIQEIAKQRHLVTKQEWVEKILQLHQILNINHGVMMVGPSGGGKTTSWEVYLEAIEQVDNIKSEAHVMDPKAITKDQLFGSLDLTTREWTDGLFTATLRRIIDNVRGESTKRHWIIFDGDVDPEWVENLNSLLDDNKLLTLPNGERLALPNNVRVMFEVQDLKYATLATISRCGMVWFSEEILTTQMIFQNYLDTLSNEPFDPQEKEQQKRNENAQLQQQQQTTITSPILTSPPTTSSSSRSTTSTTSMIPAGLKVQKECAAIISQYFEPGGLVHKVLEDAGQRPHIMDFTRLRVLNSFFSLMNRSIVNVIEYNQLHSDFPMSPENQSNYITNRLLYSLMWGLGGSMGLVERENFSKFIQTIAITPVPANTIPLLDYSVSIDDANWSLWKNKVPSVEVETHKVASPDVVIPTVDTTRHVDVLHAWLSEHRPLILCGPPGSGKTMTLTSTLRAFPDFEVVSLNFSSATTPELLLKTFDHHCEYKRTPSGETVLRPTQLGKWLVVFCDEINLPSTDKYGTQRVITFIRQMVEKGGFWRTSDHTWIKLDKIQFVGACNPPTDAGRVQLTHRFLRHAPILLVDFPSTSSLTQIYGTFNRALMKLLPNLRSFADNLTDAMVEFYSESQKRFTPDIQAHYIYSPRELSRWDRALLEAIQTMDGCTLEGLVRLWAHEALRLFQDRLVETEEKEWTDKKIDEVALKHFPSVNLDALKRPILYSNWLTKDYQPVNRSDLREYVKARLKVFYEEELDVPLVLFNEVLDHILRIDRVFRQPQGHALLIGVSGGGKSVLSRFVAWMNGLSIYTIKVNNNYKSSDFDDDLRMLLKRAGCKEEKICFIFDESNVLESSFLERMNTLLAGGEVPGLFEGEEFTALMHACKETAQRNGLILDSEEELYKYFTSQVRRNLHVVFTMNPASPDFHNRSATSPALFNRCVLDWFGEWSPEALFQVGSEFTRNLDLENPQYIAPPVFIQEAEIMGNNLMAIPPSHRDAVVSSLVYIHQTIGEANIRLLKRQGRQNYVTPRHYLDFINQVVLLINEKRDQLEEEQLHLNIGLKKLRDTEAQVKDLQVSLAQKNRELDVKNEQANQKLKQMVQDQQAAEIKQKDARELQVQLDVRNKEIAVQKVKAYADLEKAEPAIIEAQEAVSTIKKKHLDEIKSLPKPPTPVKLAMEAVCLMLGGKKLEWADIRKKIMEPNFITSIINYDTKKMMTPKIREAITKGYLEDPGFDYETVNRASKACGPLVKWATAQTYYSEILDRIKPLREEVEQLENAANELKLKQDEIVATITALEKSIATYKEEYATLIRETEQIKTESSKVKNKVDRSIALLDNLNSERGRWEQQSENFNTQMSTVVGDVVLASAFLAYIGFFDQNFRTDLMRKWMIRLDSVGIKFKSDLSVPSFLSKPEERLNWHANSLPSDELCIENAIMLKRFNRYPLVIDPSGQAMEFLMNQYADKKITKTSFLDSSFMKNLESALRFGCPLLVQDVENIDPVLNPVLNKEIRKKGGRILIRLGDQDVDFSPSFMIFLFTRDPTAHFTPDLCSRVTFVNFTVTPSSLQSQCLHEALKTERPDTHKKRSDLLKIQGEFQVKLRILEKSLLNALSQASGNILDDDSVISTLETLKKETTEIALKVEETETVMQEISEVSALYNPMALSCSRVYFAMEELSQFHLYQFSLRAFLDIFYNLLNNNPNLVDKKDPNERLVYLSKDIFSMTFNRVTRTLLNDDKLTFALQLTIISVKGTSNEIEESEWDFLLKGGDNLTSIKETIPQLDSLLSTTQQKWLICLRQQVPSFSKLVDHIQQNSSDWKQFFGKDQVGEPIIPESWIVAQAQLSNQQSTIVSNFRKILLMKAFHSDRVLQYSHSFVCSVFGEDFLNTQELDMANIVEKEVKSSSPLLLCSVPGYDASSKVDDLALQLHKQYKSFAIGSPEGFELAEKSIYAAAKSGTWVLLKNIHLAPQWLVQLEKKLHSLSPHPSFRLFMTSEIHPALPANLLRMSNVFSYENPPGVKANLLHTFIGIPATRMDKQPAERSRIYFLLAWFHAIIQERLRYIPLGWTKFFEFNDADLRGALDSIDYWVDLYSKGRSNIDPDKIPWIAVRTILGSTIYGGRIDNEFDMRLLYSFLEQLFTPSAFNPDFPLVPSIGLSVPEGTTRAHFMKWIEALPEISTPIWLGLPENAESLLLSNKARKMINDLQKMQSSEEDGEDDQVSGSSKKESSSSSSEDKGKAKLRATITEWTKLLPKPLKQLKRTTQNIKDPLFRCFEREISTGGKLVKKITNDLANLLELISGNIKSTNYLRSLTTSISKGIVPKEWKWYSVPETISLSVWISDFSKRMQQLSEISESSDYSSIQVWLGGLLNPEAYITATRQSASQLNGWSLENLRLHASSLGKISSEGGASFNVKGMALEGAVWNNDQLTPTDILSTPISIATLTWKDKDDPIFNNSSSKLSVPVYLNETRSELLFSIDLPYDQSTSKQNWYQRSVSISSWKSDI

T1 sequence (P34036 1388-4730): as the sequence (P34036 1388-4730 E2027Q) above, with Q640E counted along it

SMILES | cryo-EM reconstruction of head, 23 Å [1] | cryo-EM reconstruction of head, 25 Å [2]
Nc1ncnc2c1ncn2[C@@H]1O[C@H](COP(=O)(O)OP(=O)(O)O)[C@@H](O)[C@H]1O [ADP] | Cryo-EM reconstruction of the head domain of cytoplasmic dynein in the presence of ADP | –
Nc1ncnc2c1ncn2[C@@H]1O[C@H](COP(=O)(O)OP(=O)(O)OP(=O)(O)O)[C@@H](O)[C@H]1O [ATP] | – | cytoplasmic dynein head, bearing a E2027Q substitution, in the ATP state

Reference: paper PMC3469822, “ATP-Driven Remodeling of the Linker Domain in the Dynein Motor” (Structure(London, England:1993), 2012)
